Several values for one entry are separate records, joined by “and”; a condition that tells them apart may be missing. Identical values can stand only once.
Key:
COX-1 and COX-2 = conditions: cited from earlier work
[1] = tested on: bladder cancer PDX BL0293; experiment: tumor growth and survival in NSG-PDX bladder cancer mouse model BL0293; type: in vivo, NSG mice
Method: (§1) Materials and Supplies. Bladder cancer subject-derived xenograft (PDX) models were provided by The Jackson Laboratory (JAX, Bar Harbor, Me.). […] All experiments utilized PDX models within the first five passages. […] Gemcitabine was purchased from LC Laboratories (Woburn, Mass.). […] The cell lines have not been tested and authenticated by the authors.
(§2) PDX bladder cancer. NSG PDX studies were performed at the University of California Davis with IACUC approval. […] Gemcitabine was dissolved in 0.9% saline and administered at a dose of 150 mg/kg (IP, weekly) for 4 weeks. Animal weight and tumor size were measured twice per week. […] The percentage of tumor growth inhibition (TGI) was calculated as follows; 100%×(1−[(V^treated(final day)−V^treated(initial day))/(V^control(final day)−V^control(initial day))]), where V is tumor volume.
(§3) Statistics. Data are presented as mean±standard error of the mean (SEM) or mean±standard deviation (SD). Group comparisons were carried out using one-way analysis of variance or Student's t test. Survival analysis was performed using the Kaplan-Meier method. A p value of less than 0.05 was considered statistically significant.

[2] = tested on: bladder cancer PDX BL0269; experiment: tumor growth in NSG-PDX bladder cancer mouse model BL0269; type: in vivo, NSG mice
Method: as §1, §2, §3

p-ERK and p-AKT = experiment: Western blot of PDX BL0293 tumor tissue; type: in vivo, NSG mice; conditions: day 3; BL0293 tumors
Method: Blood samples from mice were collected and analyzed for complete blood count (CBC), blood urea nitrogen (BUN), aspartate aminotransferase (AST), creatinine and total bilirubin at the Veterinary Medicine Comparative Pathology Laboratory of University of California Davis. The tumor, heart, liver, spleen, lung and kidney were harvested and the tissue samples were fixed in formalin or frozen at −80° C. Tumor sections were stained with hematoxylin and eosin (H&E) or were used for immunohistochemistry analysis. A board-certified pathologist provided detailed interpretation of tumor histomorphology and scoring of immunohistochemical staining. Some of the tumor sections were lysed and chromatographed using SDS-PAGE followed by transfer onto a PVDF membrane. […] The membranes were then probed with horseradish peroxidase (HRP) tagged secondary antibodies and epitopes were detected using the ECL Plus Western Blotting Detection Reagent (GE Healthcare, Piscataway, N.J.). Cell proliferation and apoptosis assessed with Ki-67 and cleaved caspase-3 antibodies (Cell Signaling, Danvers, Mass.) using an immunohistochemistry kit per the manufacturer's instructions (BioGenex, Fremont, Calif.).

[3] = tested on: 5637 bladder cancer cells; experiment: 72 hr cell viability assay (MTS) and combination index, 5637; type: cell-based, human; conditions: single drug, 72 hr
Method: Median effect analysis to determine in vitro drug-drug interaction. […] PTUPB was dissolved in dimethyl sulfoxide (DMSO) to a final stock concentration of 10 mM. […] Cells were seeded at 2,000-3,000 cells and 100 μl of medium per well into 96-well plates (Becton Dickinson, Franklin Lakes, N.J.), and incubated overnight. Different concentrations of these two drugs were diluted in culture media and added to each well. The plates were then incubated for an additional 72 hours. The control group was dosed with 0.2% DMSO. Cell viability assays (MTS) were performed according to the manufacturer's protocol (Promega, Madison, Wis.). […] Dose-response curves were generated with GraphPad Prism 5 software (GraphPad Software Inc., La Jolla, Calif.). The combination indices (CI) were determined based on the method of Chou et al (26). CI values were calculated with CompuSyn software (http://www.combosyn.com/).

COX-1 = COX-1 inhibitory activity (Table 3); type: biochemical; design: dose or concentration left out as unconfirmed
[4] = tested on: carboplatin-DNA adducts in BL0293 tumors; experiment: carboplatin-DNA adduct formation in vivo (accelerator mass spectrometry); conditions: carboplatin alone; 24 hours after carboplatin
From the text: (§4) Accelerator mass spectrometry to determine platinum-DNA adduct formation.
DNA was extracted using a Promega Wizard genomic DNA purification kit according to manufacturer's instructions. Ten micrograms of DNA per sample was submitted to Lawrence Livermore National Laboratory (LLNL) for AMS analysis using previously reported protocol (25).

[5] = tested on: carboplatin-DNA adducts in 5637 bladder cancer cell line; experiment: carboplatin-DNA adduct formation in vitro (accelerator mass spectrometry)
Method: as §4
Cells were harvested at the 4 hr time point in one group of dishes and another group was washed and further incubated for 20 hr with fresh drug-free medium before cell harvest in order to determine DNA repair. Cell pellets were stored at −80° C. until DNA extraction.

Row | Compound | COX-1 (% inhibition) (COX-1) [%] | further results
1 | CC(=O)Oc1ccccc1C(=O)O [Aspirin, aspirin] | – | COX-2 (IC50)/COX-1 (IC50) ratio (COX-1 and COX-2): 0.32
2 | N.N.[Cl][Pt][Cl] [cisplatin, reference compound] | – | overall survival ([1]; BL0293, PTUPB 30 mg/kg orally once daily, cisplatin 2 mg/kg i.v.): 47.0 days and 47 days; anti-tumor activity, single agent ([1]; mice bearing BL0293 tumors): moderate anti-tumor activity; tumor growth [2]: resistant; levels of p-ERK and p-AKT (p-ERK and p-AKT): did not significantly diminish; IC50 [3]: 4.5 µM
3 | CS(=O)(=O)c1ccc(-n2nc(CNC(=O)NC34CC5CC(CC(C5)C3)C4)cc2-c2ccccc2)cc1 [compound 1860, 1-Adamantan-1-yl-3-[1-(4-methanesulfonyl-phenyl)-5-phenyl-1H-pyrazol-3-ylmethyl]-urea] | 12.7 | –
4 | CS(=O)(=O)c1ccc(-n2nc(CNC(=O)Nc3cccc(C(F)(F)F)c3)cc2-c2ccccc2)cc1 [compound 1861, 1-[1-(4-Methanesulfonyl-phenyl)-5-phenyl-1H-pyrazol-3-ylmethyl]-3-(3-trifluoromethyl-phenyl)-urea] | 7.8 | –
5 | CS(=O)(=O)c1ccc(-n2nc(CCCNC(=O)Nc3cccc(C(F)(F)F)c3)cc2-c2ccccc2)cc1 [compound 1862, 1-{3-[1-(4-Methanesulfonyl-phenyl)-5-phenyl-1H-pyrazol-3-yl]-propyl}-3-(3-trifluoromethyl-phenyl)-urea] | 6.4 | –
6 | CC(C)(C)c1cc(CNC(=O)Nc2cccc(C(F)(F)F)c2)nn1-c1ccc(S(C)(=O)=O)cc1 [compound 2106, 1-[5-tert-Butyl-1-(4-methanesulfonyl-phenyl)-1H-pyrazol-3-ylmethyl]-3-(3-trifluoromethyl-phenyl)-urea] | 2.4 | –
7 | NS(=O)(=O)c1ccc(-n2nc(CNC(=O)Nc3cccc(C(F)(F)F)c3)cc2-c2ccccc2)cc1 [compound 2107, 4-{5-Phenyl-3-[3-(3-trifluoromethyl-phenyl)-ureidomethyl]-pyrazol-1-yl}-benzenesulfonamide] | 16.9 | –
8 | NS(=O)(=O)c1ccc(-n2nc(NC(=O)Nc3cccc(C(F)(F)F)c3)cc2-c2ccccc2)cc1 [compound 2121, 4-{5-Phenyl-3-[3-(3-trifluoromethyl-phenyl)-ureido]-pyrazol-1-yl}-benzenesulfonamide] | 33.9 | –
9 | Cc1ccc(-c2cc(CCCNC(=O)Nc3cccc(C(F)(F)F)c3)nn2-c2ccc(S(N)(=O)=O)cc2)cc1 [compound 2152, 4-(5-p-Tolyl-3-{3-[3-(3-trifluoromethyl-phenyl)-ureido]-propyl}-pyrazol-1-yl)-benzenesulfonamide] | 12.1 | –
10 | NS(=O)(=O)c1ccc(-n2nc(CCCNC(=O)Nc3ccccc3)cc2-c2ccccc2)cc1 [compound 2245, 4-{5-Phenyl-3-[3-(3-phenyl-ureido)-propyl]-pyrazol-1-yl}-benzenesulfonamide] | 15.8 | –
11 | NS(=O)(=O)c1ccc(-n2nc(CCCNC(=O)Nc3cccc(C(F)(F)F)c3)cc2-c2ccccc2)cc1 [compound 2246, 4-(5-Phenyl-3-{3-[3-(3-trifluoromethyl-phenyl)-ureido]-propyl}-pyrazol-1-yl)-benzenesulfonamide] | 27.2 | –
12 | NS(=O)(=O)c1ccc(-n2nc(CCCNC(=O)NC3CCCCCC3)cc2-c2ccccc2)cc1 [compound 2247, 4-{3-[3-(3-Cycloheptyl-ureido)-propyl]-5-phenyl-pyrazol-1-yl}-benzenesulfonamide] | 10.2 | –
13 | NS(=O)(=O)c1ccc(-n2nc(CCNC(=O)Nc3cccc(C(F)(F)F)c3)cc2-c2ccccc2)cc1 [compound 2313, 4-(5-Phenyl-3-{2-[3-(3-trifluoromethyl-phenyl)-ureido]-ethyl}-pyrazol-1-yl)-benzenesulfonamide] | 22.0 | –
14 | CS(=O)(=O)c1ccc(-n2nc(CNC(=O)NC3CCCCCC3)cc2-c2ccccc2)cc1 [compound 2321, 1-Cycloheptyl-3-[1-(4-methanesulfonyl-phenyl)-5-phenyl-1H-pyrazol-3-ylmethyl]-urea] | 3.4 | –
15 | CS(=O)(=O)c1ccc(-n2nc(CNC(=O)Nc3ccc(OC(F)(F)F)cc3)cc2-c2ccccc2)cc1 [compound 2323, 1-[1-(4-Methanesulfonyl-phenyl)-5-phenyl-1H-pyrazol-3-ylmethyl]-3-(4-trifluoromethoxy-phenyl)-urea] | 10.4 | –
16 | CS(=O)(=O)c1ccc(-n2nc(CNC(=O)Nc3ccc(C(F)(F)F)cc3)cc2-c2ccccc2)cc1 [compound 2324, 1-[1-(4-Methanesulfonyl-phenyl)-5-phenyl-1H-pyrazol-3-ylmethyl]-3-(4-trifluoromethyl-phenyl)-urea] | 10.7 | –
17 | CC(C)c1cccc(C(C)C)c1NC(=O)NCCCc1cc(-c2ccccc2)n(-c2ccc(S(N)(=O)=O)cc2)n1 [compound 2325, 4-(3-{3-[3-(2,6-Diisopropyl-phenyl)-ureido]-propyl}-5-phenyl-pyrazol-1-yl)-benzenesulfonamide] | 6.2 | –
18 | NS(=O)(=O)c1ccc(-n2nc(CCCNC(=O)NC34CC5CC(CC(C5)C3)C4)cc2-c2ccccc2)cc1 [compound 2326, 4-{3-[3-(3-Adamantan-1-yl-ureido)-propyl]-5-phenyl-pyrazol-1-yl}-benzenesulfonamide] | 6.7 | –
19 | NS(=O)(=O)c1ccc(-n2nc(CCCNC(=O)Nc3ccc(Cl)cc3)cc2-c2ccccc2)cc1 [compound 2327, 4-(3-{3-[3-(4-Chloro-phenyl)-ureido]-propyl}-5-phenyl-pyrazol-1-yl)-benzenesulfonamide] | 15.2 | –
20 | NS(=O)(=O)c1ccc(-n2nc(CCCNC(=O)Nc3ccc(OC(F)(F)F)cc3)cc2-c2ccccc2)cc1 [compound 2329, 4-(5-Phenyl-3-{3-[3-(4-trifluoromethoxy-phenyl)-ureido]-propyl}-pyrazol-1-yl)-benzenesulfonamide] | 13.8 | –
21 | Nc1ccn([C@@H]2O[C@H](CO)[C@@H](O)C2(F)F)c(=O)n1 [gemcitabine] | – | tumor growth [2]: resistant
22 | COc1ccc2c(c1)c(CC(=O)O)c(C)n2C(=O)c1ccc(Cl)cc1 [indomethacin] | – | COX-2 (IC50)/COX-1 (IC50) ratio (COX-1 and COX-2): 33
23 | O=C(NC12CC3CC(CC(C3)C1)C2)N[C@H]1CC[C@H](Oc2ccc(C(=O)O)cc2)CC1 [t-AUCB, trans-4-[4-(3-Adamantan-1-yl-ureido)-cyclohexyloxy]-benzoic acid] | – | potentiation of cisplatin with respect to inhibiting tumor growth ([2]; combined with cisplatin 2 mg/kg): moderate additive effect
24 | carboplatin | – | carboplatin-DNA adduct levels in tumor DNA [4]: 1070±317 adducts/10^8 nt; DNA repair rate ([5]; 5637 cells): 21.2 +/−1.3 adducts/10^8 nt per hour; platinum-DNA adduct formation ([5]; after 4h, carboplatin 100 μM, PTUPB 10 μM simultaneously): 528±41 adducts per 10^8 nt; platinum-DNA adduct levels ([5]; at 24 hours (4 hours drug, 20 hours drug-free medium)): 104.1 +/−17.7 adducts/10^8 nt; carboplatin induced DNA adduct formation ([5]; pretreatment with 10 μM PTUPB for 5 hours, then carboplatin): 706 +/−26 adducts per 10^8 nt

— patent US11426385B2, “Methods of improving cancer chemotherapy” (THE REGENTS OF THE UNIVERSITY OF CALIFORNIA, priority 2017, dated 2022)
